Consider 26 compounds from PMC10020548, “Synthesis and structure–activity relationship studies of benzimidazole-thioquinoline derivatives as α-glucosidase inhibitors” (Scientific Reports, 2023).

For series [1], the target named is T1, α-Glucosidase enzyme (EC3.2.1.20, Saccharomyces cerevisiae) (Saccharomyces cerevisiae, UniProt P53341).
T1 construct: purchased Sigma-Aldrich
Kind of series: biochemical. The note with it: α-glucosidase from S. cerevisiae, substrate p-nitrophenyl glucopyranoside, pH 6.8, 37 °C; mean ± SD. The procedure:
α-Glucosidase enzyme (EC3.2.1.20, Saccharomyces cerevisiae, 20 U/mg) and substrate (p-nitrophenyl glucopyranoside) were purchased from Sigma-Aldrich. 1 mg of α-glucosidase was dissolved in potassium phosphate buffer (50 mM, pH = 6.8) to obtain the initial activity of 1 U ml^–1. Then, 20 µl of this enzyme solution was incubated with 135 µl of potassium phosphate buffer and 20 µl of test compound at various concentrations in DMSO. Therefore, the final concentration of the enzyme was about 0.1 U ml^–1. After 10 min incubation at 37 °C, 25 µl of the substrate at a final concentration of 4 mM was added to the mixture and allowed to incubate at 37 °C for 20 min.
The percentage of inhibition for each entry was calculated by using the following formula: %Inhibition=[(Abscontrol-Abssample)/Abscontrol]×100 IC50 values were obtained from the nonlinear regression curve using the Logit method.

Series [2] has as its target α-glucosidase (Saccharomyces cerevisiae, UniProt P53341). Put plainly: Enzyme kinetic studies (Lineweaver–Burk plot, secondary plot). Type of series: biochemical. As to the method: A Lineweaver–Burk plot was generated to identify the type of inhibition and the Michaelis–Menten constant (Km) value was determined from the plot between the reciprocal of the substrate concentration (1/[S]) and reciprocal of enzyme rate (1/V) over various inhibitor concentrations. The experimental inhibitor constant (Ki) value was constructed by secondary plots of the inhibitor concentration [I] versus Km[43],[44].

Series [3] deals with α-glucosidase. The note with it: cited from earlier work.
For series [4], the system named is α-glucosidase. On the set-up: method as in PMID 34717239. To be noted: cited from earlier work.
The subject of series [5] is LO2 cells. Details: method as in PMID 34717239. To be noted: cited from earlier work.

Read-outs that look alike come from different tables or passages of the source.

T1 sequence (P53341 whole entry): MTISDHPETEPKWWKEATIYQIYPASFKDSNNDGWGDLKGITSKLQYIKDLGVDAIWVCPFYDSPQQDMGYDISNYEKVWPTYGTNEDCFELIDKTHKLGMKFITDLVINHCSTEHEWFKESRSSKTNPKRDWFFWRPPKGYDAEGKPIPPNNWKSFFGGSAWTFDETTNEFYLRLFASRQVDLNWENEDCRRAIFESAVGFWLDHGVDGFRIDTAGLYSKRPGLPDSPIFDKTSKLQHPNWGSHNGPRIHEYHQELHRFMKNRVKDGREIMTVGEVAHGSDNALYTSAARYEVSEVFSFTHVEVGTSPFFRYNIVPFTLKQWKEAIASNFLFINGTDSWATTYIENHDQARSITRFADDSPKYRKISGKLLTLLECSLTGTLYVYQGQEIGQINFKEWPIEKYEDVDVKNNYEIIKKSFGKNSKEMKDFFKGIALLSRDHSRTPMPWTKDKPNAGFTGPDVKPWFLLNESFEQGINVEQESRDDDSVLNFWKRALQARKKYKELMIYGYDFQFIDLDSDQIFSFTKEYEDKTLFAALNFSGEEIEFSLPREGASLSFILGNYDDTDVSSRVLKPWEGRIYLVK
Chain of α-glucosidase (Saccharomyces cerevisiae, UniProt P53341) (P53341 whole entry): as above

On to `Brc1ccccc1CSc1nc2ccccc2cc1-c1nc2ccccc2[nH]1` [Compound 6h, 3-(1H-benzo[d]imidazol-2-yl)-2-((2-bromobenzyl)thio)quinoline], for which the IC50 in series [1] was 133.5 ± 1.3 µM. On the same count and under the same terms, as for `Cc1ccccc1CSc1nc2ccccc2cc1-c1nc2ccccc2[nH]1` [Compound 6l, 3-(1H-benzo[d]imidazol-2-yl)-2-((2-methylbenzyl)thio)quinoline], the figure is 195.7 ± 0.6 µM; as for `Cc1cccc(CSc2nc3ccccc3cc2-c2nc3ccccc3[nH]2)c1` [Compound 6m, 3-(1H-benzo[d]imidazol-2-yl)-2-((3-methylbenzyl)thio)quinoline], 158 ± 2.4 µM.

Turning to `Brc1ccc(CSc2nc3ccccc3cc2-c2nc3ccccc3[nH]2)cc1` [Compound 6j, 3-(1H-benzo[d]imidazol-2-yl)-2-((4-bromobenzyl)thio)quinoline], in series [2] (secondary plot of Km versus inhibitor concentration, read-out: inhibition constant, Ki), the inhibition constant Ki is 28.1 µM. Besides, the “inhibition pattern (Lineweaver–Burk plot)” value in series [2] (substrate p-nitrophenyl α-D-glucopyranoside 1–16 mM, inhibitor 0, 7, 14, 28 µM) is on record as “competitive inhibition”. The same compound displayed an IC50 in series [1] of 28 ± 0.6 µM. For the compound `Fc1ccc(CSc2nc3ccccc3cc2-c2nc3ccccc3[nH]2)cc1` [Compound 6d, 3-(1H-benzo[d]imidazol-2-yl)-2-((4-fluorobenzyl)thio)quinoline], in series [1], half-maximal inhibition (IC50) required 80.9 ± 1.1 µM.

`O=C(O)c1ccc2ccccc2n1` [Compound A, Quinoline-2-carboxylic acid]: the IC50 in series [3] is 9.1 ± 2.3 µg/mL. Consider `Brc1ccc(CNc2cccc(-c3nc4ccccc4[nH]3)c2)cn1` [E], for which the IC50 in series [3] (in-house library hit, read-out: IC50) is 37.9 ± 1.86 µM. In turn, `CCSc1nc2ccccc2cc1-c1nc2ccccc2[nH]1` [Compound 6r, 3-(1H-benzo[d]imidazol-2-yl)-2-(ethylthio)quinoline] displayed an IC50 in series [1] of 300.7 ± 2 µM. `Brc1cccc(CSc2nc3ccccc3cc2-c2nc3ccccc3[nH]2)c1` [Compound 6i, 3-(1H-benzo[d]imidazol-2-yl)-2-((3-bromobenzyl)thio)quinoline]: the IC50 in series [1] amounted to 65.5 ± 2 µM.

As to `O=C(N/N=C/c1ccc(O)c(O)c1)c1ccc2ncccc2c1` [Compound C], in series [3] (quinoline derivatives study, read-out: IC50), the IC50 is 6.2 ± 0.3 µM. Turning to `Cc1cccc2nc(-c3ccccc3Cl)[nH]c12` [H], the IC50 in series [3] (benzimidazole of previous studies, read-out: IC50) is 5.3 ± 0.1 µM. In the case of `c1ccc(CSc2nc3ccccc3cc2-c2nc3ccccc3[nH]2)cc1` [Compound 6a, 3-(1H-benzo[d]imidazol-2-yl)-2-(benzylthio) quinoline], the IC50 in series [1] worked out at 153.7 ± 0.9 µM. The same measure, in the same setting: as for `Clc1ccc(CSc2nc3ccccc3cc2-c2nc3ccccc3[nH]2)cc1` [Compound 6g, 3-(1H-benzo[d]imidazol-2-yl)-2-((4-chlorobenzyl)thio)quinoline], the figure is 96.6 ± 0.1 µM. The same measure, in the same setting: as for `O=[N+]([O-])c1ccc(CSc2nc3ccccc3cc2-c2nc3ccccc3[nH]2)cc1` [Compound 6p, 3-(1H-benzo[d]imidazol-2-yl)-2-((4-nitrobenzyl)thio)quinoline], the figure is 89.2 ± 1.3 µM. Same read-out and setting: then `Cc1ccc(CSc2nc3ccccc3cc2-c2nc3ccccc3[nH]2)cc1` [Compound 6n, 3-(1H-benzo[d]imidazol-2-yl)-2-((4-methylbenzyl)thio)quinoline], with 116.6 ± 0.5 µM; and `COc1ccc(CSc2nc3ccccc3cc2-c2nc3ccccc3[nH]2)cc1` [Compound 6q, 3-(1H-benzo[d]imidazol-2-yl)-2-((4-methoxybenzyl)thio)quinoline], with 67.3 ± 0.8 µM. As for `Cc1cc2nc(-c3ccc(C(=O)N/N=C/c4cc(O)c(O)c(O)c4)cc3)[nH]c2cc1C` [G], the IC50 in series [3] (benzimidazole derivatives (Zawawi and coworkers), read-out: IC50) is 8.4 ± 0.76 µM. In turn, `Clc1cccc(CSc2nc3ccccc3cc2-c2nc3ccccc3[nH]2)c1` [Compound 6f, 3-(1H-benzo[d]imidazol-2-yl)-2-((3-chlorobenzyl)thio)quinoline] had an IC50 in series [1] of 48.2 ± 0.4 µM. On the same count and under the same terms, as for `Fc1cccc(CSc2nc3ccccc3cc2-c2nc3ccccc3[nH]2)c1` [Compound 6c, 3-(1H-benzo[d]imidazol-2-yl)-2-((3-fluorobenzyl)thio)quinoline], the figure is 76.7 ± 0.7 µM. Regarding `CC(C)(C)c1ccc(C(=O)Oc2cccc(-c3nc4ccccc4[nH]3)c2)cc1` [F], the “type of inhibition (kinetic study)” value in series [4] is reported as “non-competitive inhibition”. For the same compound, in series [5], the “cytotoxicity against LO2 cells” value is “no cytotoxicity”. Besides, the IC50 in series [3] (2-phenyl-1H-benzo[d]imidazole derivatives, read-out: IC50) was 0.71 ± 0.02 µM. Compound `Clc1ccc(CSc2nc3ccccc3cc2-c2nc3ccccc3[nH]2)cc1Cl` [Compound 6k, 3-(1H-benzo[d]imidazol-2-yl)-2-((3,4-dichlorobenzyl)thio)quinoline] had an IC50 in series [1] of 99.4 µM. Turning to `Cc1cccc(CSc2nc3ccccc3cc2-c2nc3ccccc3[nH]2)c1C` [Compound 6o, 3-(1H-benzo[d]imidazol-2-yl)-2-((2,3-dimethylbenzyl)thio)quinoline], it took 126.9 ± 0.5 µM to reach half-maximal inhibition in series [1] (IC50). Still for that read-out and setting: as for `Fc1ccccc1CSc1nc2ccccc2cc1-c1nc2ccccc2[nH]1` [Compound 6b, 3-(1H-benzo[d]imidazol-2-yl)-2-((2-fluorobenzyl)thio)quinoline], the figure is 188 ± 2.4 µM; as for `Clc1ccccc1CSc1nc2ccccc2cc1-c1nc2ccccc2[nH]1` [Compound 6e, 3-(1H-benzo[d]imidazol-2-yl)-2-((2-chlorobenzyl)thio)quinoline], 663.7 ± 1.2 µM. Consider `O=c1c(C(c2c[nH]c3ccccc23)c2c[nH]c3ccccc23)cc2ccccc2n1Cc1ccccc1` [Compound D], for which the IC50 in series [3] (quinolone-bis(indolyl)methane hybrids study, read-out: IC50) was 21.8 ± 1.8 µM. In the case of `O=C(N/N=C/c1ccc(O)c(O)c1)c1ccc(-c2nnc(-c3ccc4ncccc4c3)o2)cc1` [Compound B], in series [3] (oxadiazole-quinoline study, read-out: IC50), the IC50 was 2.6 ± 0.01 µM.

Broadly, the IC50 is the midpoint of a concentration-inhibition curve. For orientation: Ki means a measure of affinity in units of concentration, obtained from inhibition or displacement.
